Measured values: patent US11666562B2, “Ilaprazole for inhibiting the release of enveloped viruses from cells” (Northwestern University, priority 2020, dated 2023)

Molecular target: T1, Tsg101-UEV (Tsg101 amino acids 1-145) (Homo sapiens, UniProt Q99816)
T1 construct: The recombinant Tsg101 fragment (amino acids 1-145), prepared as described above in Materials and Methods; His6 (N); thrombin protease cleavage site (N); made in house; host or cells: E. coli ROSETTA 2 (DE3) pLysS
T1 sequence (Q99816 1-145): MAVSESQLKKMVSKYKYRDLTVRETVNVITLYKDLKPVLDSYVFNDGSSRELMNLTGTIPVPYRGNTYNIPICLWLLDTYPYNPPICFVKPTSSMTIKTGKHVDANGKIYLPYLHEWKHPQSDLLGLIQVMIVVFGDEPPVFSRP
Test: Fluorescence thermal shift (FTS) assay, binding to Tsg101-UEV
Conditions: for Tm (melting temperature) shift of Tsg101-UEV: FTS, Sypro-Orange, no DTT
Method: The fluorescence-based thermal shift assay is based on the observation that a protein unfolds upon heating, exposing the hydrophobic residues within its tertiary structure. The unfolding temperature (Tm) is determined by the protein's primary sequence and solution environment. The FTS assay uses a fluorescent dye sensitive to a hydrophobic environment to probe protein stability and its modulation by small molecule ligands. The dye has a low fluorescence quantum yield when in a polar environment. Once in contact with the hydrophobic core normally buried within a folded protein that has become exposed during the thermal unfolding (melting) process, the quantum yield of the dye increases, thus providing a reporting signal. Furthermore, a protein's stability can be affected by ligand binding, resulting in an increase or decrease in its melting temperature. FTS assay uses the Tm shift upon binding of a ligand to identify hit compounds for drug discovery.
Identification of prazole compounds that bind the UEV ubiquitin-binding domain of Tsg101. We screened chemical compounds using a fluorescence thermal shift (FTS) assay (27, 28) to identify small molecules that bind directly to a truncated form of Tsg101 (amino acids 1-145) which contains the Ubiquitin E2 variant (UEV) ubiquitin-binding domain (FIG. 1). The UEV, which contains the PT/SAP binding domain in addition to the ubiquitin-binding domain, provides chaperone functions to HIV-1 Gag that is independent of its interaction with the PS/TAP motif, and contains the prazole binding site (5). This truncated Tsg101, called Tsg101-UEV, was used because full-length Tsg101 has significant solubility issues in aqueous solution. Tsg101 is an adaptor protein and thus lacks a readily deployable functional assay, making FTS a tractable approach to identify interacting compounds. FTS monitors protein thermal denaturation using SYPRO-Orange, a dye which fluoresces when bound to hydrophobic surfaces, which allows monitoring of the changes in hydrophobic surface exposure during protein denaturation (27). Since ligand binding affects protein thermal stability, it can be detected through modulation of protein thermal denaturation (melting) as a shift in melting temperature (Tm). Tsg101-UEV has a well-defined melting curve suitable for FTS. We used the FTS assay to identify compounds that bind to Tsg101-UEV.
Purification of Tsg101 (1-145). N-terminally His6-tagged Tsg101 UEV domain (amino acids 1-145), called Tsg101-UEV, was encoded in a pET-28b vector (Novagen—EMD Millipore), which also included a thrombin protease cleavage site (His6-Thrombin Site-Tsg101, 1-145). Tsg101-UEV was grown in LB broth with Kanamycin (30 μg/ml) in ROSETTA 2 (DE3) pLysS E. coli competent cells (EMD Millipore) and induced with 1 mM IPTG at room temperature for 3 h. Bacteria were collected by centrifugation at 4,000 rpm for 10 min at […]. Bacteria were suspended in 50 ml binding buffer (20 mM Tris-HCl, pH 7.9, 0.5 M NaCl, 5 mM Imidazole) with 1 mM PMSF, 0.1% NP40, and a Protease Inhibitor Cocktail Tablet (Roche) and sonicated for 3.5 min on ice. The sonicate was spun at 9,000 rpm for 1 h at […] in a Sorvall centrifuge. The supernatant was collected and passed through a 1.5 ml Ni-NTA Agarose column. The column was washed with 20 mM Tris-HCl, pH 7.9, 0.5 M NaCl, 30 mM Imidazole wash buffer. […] Protein concentration was determined with a Nano Drop Spectrophotometer at […]. […]

COc1ccnc(C[S+]([O-])c2nc3ccc(-n4cccc4)cc3[nH]2)c1C (stereo not shown) [Ilaprazole, 2-[(4-methoxy-3-methylpyridin-2-yl)methylsulfinyl]-6-pyrrol-1-yl-1H-benzimidazole]
Tm shift of Tsg101-UEV on addition of DTT (FTS with reducing agent DTT): blocked by the addition of DTT
Tm (melting temperature) shift of Tsg101-UEV: largest thermal shift

COc1ccc2[nH]c([S+]([O-])Cc3ncc(C)c(OC)c3C)nc2n1 (stereo not shown) [Tenatoprazole]
Tm (melting temperature) shift of Tsg101-UEV: dose-dependent shift in the Tm
Tm (melting temperature) shift of Tsg101-UEV (listed as tenatoprazole): destabilizes the native protein structure
